Measurements published in ChEMBL document CHEMBL4840354, “Identification of Diarylurea Inhibitors of the Cardiac-Specific Kinase TNNI3K by Designing Selectivity Against VEGFR2, p38α, and B-Raf” (J Med Chem, 2021).

Columns and labels:
[1] = species: Homo sapiens; assay: Selectivity index, ratio of IC50 for inhibition of p38alpha (unknown origin) to IC50 for inhibition of TNNI3K (unknown origin)
[2] = biological target: Serine/threonine-protein kinase B-raf (Homo sapiens, UniProt P15056); assay: Inhibition of B-Raf (unknown origin)
[3] = biological target: Mitogen-activated protein kinase 14 (Homo sapiens, UniProt Q16539); assay: Inhibition of p38alpha (unknown origin)
[4] = biological target: T1, Serine/threonine-protein kinase TNNI3K (Homo sapiens, UniProt Q59H18); assay: Inhibition of TNNI3K (unknown origin)
T1 sequence (Q59H18 whole entry): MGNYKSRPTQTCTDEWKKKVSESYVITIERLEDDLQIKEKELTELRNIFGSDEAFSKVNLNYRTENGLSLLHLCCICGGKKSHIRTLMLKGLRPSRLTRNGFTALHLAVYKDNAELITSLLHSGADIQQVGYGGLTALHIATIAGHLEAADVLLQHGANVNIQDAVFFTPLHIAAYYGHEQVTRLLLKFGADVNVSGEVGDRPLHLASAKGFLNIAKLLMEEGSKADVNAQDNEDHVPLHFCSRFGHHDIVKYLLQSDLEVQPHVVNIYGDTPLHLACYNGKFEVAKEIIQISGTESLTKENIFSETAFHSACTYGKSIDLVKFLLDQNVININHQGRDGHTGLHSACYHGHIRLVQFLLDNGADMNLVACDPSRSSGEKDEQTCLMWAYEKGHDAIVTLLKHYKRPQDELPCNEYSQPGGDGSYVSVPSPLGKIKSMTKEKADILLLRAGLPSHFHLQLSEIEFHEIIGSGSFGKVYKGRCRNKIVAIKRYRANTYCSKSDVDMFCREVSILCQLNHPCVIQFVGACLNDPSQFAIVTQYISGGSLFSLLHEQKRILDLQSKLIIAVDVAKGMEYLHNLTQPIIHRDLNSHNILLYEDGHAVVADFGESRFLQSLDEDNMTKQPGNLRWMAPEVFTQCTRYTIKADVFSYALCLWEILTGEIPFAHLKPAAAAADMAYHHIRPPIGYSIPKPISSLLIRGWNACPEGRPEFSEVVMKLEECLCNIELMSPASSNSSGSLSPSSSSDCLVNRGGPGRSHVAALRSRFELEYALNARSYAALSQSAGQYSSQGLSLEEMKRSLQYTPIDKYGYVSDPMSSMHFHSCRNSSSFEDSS

[5] = Half life in po dosed rat administered as cassette dose; assay type: ADME, organism-based; details: in vivo
[6] = Dose normalized AUC in po dosed rat administered as cassette dose; assay type: ADME, organism-based; details: in vivo
[7] = biological target: T1, Serine/threonine-protein kinase TNNI3K; assay: Inhibition of human myc-TNNI3K expressed in HEK-MSR2 cells assessed as reduction in TNNI3K autophosphorylation preincubated for 30 mins followed by pervanadate addition and measured after 20 mins by DELFIA; assay type: cell-based
[8] = Permeability of compound incubated for 2 hrs by liquid chromatography analysis; assay type: ADME; details: read-out: permeability
[9] = species: Homo sapiens; assay: Selectivity index, ratio of IC50 for inhibition of VEGFR2 (unknown origin) to IC50 for inhibition of TNNI3K (unknown origin)
[10] = biological target: Vascular endothelial growth factor receptor 2 (Homo sapiens, UniProt P35968); assay: Inhibition of GST-6His tagged VEGFR2 (unknown origin) using biotin-aminohexyl-EEEEYFELVAKKKK-NH2 peptide substrate incubated for 90 mins by HTRF assay
[11] = biological target: Voltage-gated inwardly rectifying potassium channel KCNH2 (Homo sapiens, UniProt Q12809); assay: Inhibition of human ERG expressed in HEK293 cells; assay type: cell-based
[12] = biological target: T1, Serine/threonine-protein kinase TNNI3K; assay: Binding affinity to full length human His-MBP-TNNI3K assessed as off-rate constant in presence of rhodamine green labeled GW805818X by fluorescence competitive binding assay
[13] = biological target: T2, Serine/threonine-protein kinase TNNI3K (Homo sapiens) (UniProt Q59H18)
T2 sequence (whole entry): T1 sequence (Q59H18 whole entry)
Description: Binding affinity to full length human His-MBP-TNNI3K assessed as half life in presence of rhodamine green labeled GW805818X by fluorescence competitive binding assay

[14] = biological target: T3, Serine/threonine-protein kinase TNNI3K (Mus musculus) (UniProt Q5GIG6)
T3 sequence (whole entry): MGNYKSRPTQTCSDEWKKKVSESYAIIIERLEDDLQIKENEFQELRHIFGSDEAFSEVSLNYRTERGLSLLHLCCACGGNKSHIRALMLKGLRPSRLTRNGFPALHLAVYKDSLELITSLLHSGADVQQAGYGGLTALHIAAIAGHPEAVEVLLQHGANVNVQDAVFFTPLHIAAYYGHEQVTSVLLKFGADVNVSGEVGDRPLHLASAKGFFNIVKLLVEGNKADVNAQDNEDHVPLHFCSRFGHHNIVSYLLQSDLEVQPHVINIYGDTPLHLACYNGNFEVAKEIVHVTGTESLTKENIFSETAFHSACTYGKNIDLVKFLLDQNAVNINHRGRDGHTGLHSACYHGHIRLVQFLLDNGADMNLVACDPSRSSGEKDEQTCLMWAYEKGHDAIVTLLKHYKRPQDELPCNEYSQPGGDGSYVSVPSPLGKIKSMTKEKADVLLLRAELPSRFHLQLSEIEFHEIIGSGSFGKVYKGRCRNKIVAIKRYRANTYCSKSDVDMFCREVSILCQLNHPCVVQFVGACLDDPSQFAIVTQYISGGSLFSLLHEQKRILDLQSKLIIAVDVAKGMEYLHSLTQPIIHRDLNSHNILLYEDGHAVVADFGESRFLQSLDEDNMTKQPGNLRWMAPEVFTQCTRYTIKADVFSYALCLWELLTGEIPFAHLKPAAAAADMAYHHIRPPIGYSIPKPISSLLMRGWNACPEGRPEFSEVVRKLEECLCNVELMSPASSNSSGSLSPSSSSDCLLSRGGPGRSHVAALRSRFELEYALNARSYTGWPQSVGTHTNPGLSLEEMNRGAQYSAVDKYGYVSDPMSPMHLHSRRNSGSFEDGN
Description: Binding affinity to full length mouse His-MBP-TNNI3K assessed as half life in presence of rhodamine green labeled GW805818X by fluorescence competitive binding assay

[15] = biological target: T4, Serine/threonine-protein kinase TNNI3K (Mus musculus, UniProt Q5GIG6); assay: Binding affinity to full length mouse His-MBP-TNNI3K assessed as off-rate constant in presence of rhodamine green labeled GW805818X by fluorescence competitive binding assay
T4 sequence (Q5GIG6 whole entry): T3 sequence (whole entry)

Sequence of Mitogen-activated protein kinase 14 (Q16539 whole entry): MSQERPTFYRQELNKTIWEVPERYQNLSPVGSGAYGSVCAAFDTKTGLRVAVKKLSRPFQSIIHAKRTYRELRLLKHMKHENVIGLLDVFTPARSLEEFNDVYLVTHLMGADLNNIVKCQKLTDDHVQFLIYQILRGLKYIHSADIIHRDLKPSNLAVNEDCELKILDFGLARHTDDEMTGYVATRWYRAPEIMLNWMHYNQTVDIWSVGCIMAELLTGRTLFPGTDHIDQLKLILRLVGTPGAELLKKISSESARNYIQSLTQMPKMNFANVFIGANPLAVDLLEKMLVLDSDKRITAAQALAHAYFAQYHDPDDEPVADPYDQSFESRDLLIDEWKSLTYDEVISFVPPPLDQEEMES
Sequence of Serine/threonine-protein kinase B-raf (P15056 whole entry): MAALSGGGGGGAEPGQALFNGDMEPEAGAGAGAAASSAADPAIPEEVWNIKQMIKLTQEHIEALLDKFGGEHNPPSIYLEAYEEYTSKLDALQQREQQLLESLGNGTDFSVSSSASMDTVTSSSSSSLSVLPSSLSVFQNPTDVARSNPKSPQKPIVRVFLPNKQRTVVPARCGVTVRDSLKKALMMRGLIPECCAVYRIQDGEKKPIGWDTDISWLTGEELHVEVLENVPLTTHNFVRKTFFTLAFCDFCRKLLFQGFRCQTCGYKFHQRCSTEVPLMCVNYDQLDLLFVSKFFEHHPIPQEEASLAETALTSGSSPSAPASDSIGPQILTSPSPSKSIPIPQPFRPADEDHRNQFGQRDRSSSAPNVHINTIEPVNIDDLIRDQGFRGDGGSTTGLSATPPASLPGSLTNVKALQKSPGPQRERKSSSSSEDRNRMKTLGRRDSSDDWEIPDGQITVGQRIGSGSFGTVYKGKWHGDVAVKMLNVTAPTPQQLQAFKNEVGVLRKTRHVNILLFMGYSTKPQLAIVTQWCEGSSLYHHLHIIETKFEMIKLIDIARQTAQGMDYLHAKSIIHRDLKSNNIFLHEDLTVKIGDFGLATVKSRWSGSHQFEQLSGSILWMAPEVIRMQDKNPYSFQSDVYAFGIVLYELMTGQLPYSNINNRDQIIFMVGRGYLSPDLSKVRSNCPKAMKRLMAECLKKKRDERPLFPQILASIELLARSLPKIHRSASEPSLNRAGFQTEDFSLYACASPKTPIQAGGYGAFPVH
Sequence of Vascular endothelial growth factor receptor 2 (P35968 whole entry): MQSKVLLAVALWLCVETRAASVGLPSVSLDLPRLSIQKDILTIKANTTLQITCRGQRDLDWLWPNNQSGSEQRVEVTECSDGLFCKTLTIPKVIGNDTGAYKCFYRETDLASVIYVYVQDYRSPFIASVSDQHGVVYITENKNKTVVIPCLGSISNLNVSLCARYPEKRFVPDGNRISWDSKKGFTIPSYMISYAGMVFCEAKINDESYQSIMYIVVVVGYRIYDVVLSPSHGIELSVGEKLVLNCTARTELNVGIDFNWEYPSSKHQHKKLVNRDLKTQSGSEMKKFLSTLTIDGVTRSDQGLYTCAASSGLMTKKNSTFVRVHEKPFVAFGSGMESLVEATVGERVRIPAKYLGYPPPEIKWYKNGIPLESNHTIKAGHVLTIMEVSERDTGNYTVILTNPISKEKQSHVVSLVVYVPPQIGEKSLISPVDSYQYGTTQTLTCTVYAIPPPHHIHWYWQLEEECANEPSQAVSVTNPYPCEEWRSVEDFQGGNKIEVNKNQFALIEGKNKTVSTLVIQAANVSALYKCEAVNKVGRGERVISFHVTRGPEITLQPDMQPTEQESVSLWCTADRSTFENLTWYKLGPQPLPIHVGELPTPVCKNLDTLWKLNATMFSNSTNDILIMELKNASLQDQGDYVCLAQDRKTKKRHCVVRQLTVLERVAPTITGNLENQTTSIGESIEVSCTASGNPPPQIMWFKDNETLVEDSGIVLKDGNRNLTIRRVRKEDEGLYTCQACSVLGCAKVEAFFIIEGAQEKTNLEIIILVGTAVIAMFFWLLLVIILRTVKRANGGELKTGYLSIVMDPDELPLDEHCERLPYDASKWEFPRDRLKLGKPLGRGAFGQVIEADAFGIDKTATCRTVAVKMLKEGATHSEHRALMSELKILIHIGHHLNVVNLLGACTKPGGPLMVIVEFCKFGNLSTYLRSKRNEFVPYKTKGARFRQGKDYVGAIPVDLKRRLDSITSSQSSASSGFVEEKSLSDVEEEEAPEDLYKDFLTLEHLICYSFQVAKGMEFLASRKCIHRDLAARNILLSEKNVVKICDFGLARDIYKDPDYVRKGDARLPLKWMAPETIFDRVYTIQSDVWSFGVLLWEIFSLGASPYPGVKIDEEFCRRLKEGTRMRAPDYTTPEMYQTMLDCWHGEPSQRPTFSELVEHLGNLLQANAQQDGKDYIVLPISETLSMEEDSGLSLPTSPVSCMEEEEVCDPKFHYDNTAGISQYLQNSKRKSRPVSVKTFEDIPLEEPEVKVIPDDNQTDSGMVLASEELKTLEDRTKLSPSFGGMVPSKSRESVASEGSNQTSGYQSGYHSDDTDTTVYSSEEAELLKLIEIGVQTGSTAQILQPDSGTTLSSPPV
Sequence of Voltage-gated inwardly rectifying potassium channel KCNH2 (Q12809 whole entry): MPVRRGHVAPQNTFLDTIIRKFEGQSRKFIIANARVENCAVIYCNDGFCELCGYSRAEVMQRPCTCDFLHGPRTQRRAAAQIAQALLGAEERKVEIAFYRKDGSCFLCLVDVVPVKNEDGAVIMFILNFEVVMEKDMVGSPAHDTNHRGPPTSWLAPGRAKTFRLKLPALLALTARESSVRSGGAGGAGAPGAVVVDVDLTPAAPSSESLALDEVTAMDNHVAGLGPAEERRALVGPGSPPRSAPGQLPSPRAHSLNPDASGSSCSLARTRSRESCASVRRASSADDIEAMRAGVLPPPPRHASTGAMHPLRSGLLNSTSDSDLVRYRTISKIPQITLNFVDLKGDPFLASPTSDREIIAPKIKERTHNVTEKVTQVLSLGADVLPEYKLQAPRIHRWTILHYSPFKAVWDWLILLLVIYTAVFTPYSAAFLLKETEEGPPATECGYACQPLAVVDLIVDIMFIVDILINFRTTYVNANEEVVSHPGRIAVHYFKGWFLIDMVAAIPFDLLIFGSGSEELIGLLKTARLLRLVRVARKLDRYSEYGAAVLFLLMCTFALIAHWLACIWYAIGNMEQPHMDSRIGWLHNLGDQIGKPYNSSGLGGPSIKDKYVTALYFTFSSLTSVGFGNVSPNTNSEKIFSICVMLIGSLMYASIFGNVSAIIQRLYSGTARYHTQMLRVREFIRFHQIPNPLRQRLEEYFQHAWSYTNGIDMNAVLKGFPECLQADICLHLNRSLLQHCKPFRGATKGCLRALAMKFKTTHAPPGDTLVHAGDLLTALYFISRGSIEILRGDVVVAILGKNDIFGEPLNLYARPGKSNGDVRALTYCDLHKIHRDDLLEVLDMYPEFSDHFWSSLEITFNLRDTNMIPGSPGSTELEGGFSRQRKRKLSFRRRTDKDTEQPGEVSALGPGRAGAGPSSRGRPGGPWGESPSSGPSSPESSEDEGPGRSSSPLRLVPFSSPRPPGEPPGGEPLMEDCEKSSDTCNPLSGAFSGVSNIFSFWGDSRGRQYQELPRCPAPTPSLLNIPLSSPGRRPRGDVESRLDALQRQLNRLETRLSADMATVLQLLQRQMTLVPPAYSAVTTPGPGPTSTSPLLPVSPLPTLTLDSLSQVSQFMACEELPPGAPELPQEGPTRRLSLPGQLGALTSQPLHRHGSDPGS

Ratio IC50 [1] | IC50 [2] | IC50 [3] | IC50 [4] | half-life [5] | AUC/dose [6] | IC50 [7] | Papp at 2 h [8] | Ratio IC50 [9] | IC50 [10] | Ki [12] | T1/2 [13] | T1/2 [14] | Ki [15] | SMILES | IC50 [11]
– | – | – | – | 6.8 h | 5.8 kg·h/L | – | 11 ×10⁻⁶ cm/s | – | – | – | – | – | – | CNC(=O)c1cc(Oc2ccc(NC(=O)Nc3ccc(Cl)c(C(F)(F)F)c3)cc2)ccn1 [SORAFENIB] | –
80 | > 2000 nM | 800 nM | 10 nM | 5.4 h | 3.8 kg·h/L | 100 nM | 7.4 ×10⁻⁶ cm/s | 40 | 400 nM | 0.54 nM | 1.3 h | 0.417 h | 13 nM | CNc1cc(Oc2c(Cl)cc(NC(=O)Nc3cccc(C(F)(F)F)c3)cc2Cl)ncn1 | > 31600 nM
31 | 1000 nM | 1000 nM | 32 nM | 4.5 h | 0.3 kg·h/L | 40 nM | 8.2 ×10⁻⁶ cm/s | 2.5 | 79 nM | – | – | – | – | O=C(Nc1ccc(Oc2cc(NCCO)ncn2)cc1)Nc1cccc(C(F)(F)F)c1 | –
250 | 2000 nM | 6300 nM | – | 2.4 h | 1.5 kg·h/L | 7.9 nM | 29.5 ×10⁻⁶ cm/s | 40 | 1000 nM | – | – | – | – | CNc1cc(Oc2c(C)cc(NC(=O)Nc3cccc(C(F)(F)F)c3)cc2C)ncn1 | –
25 | > 2000 nM | 2000 nM | 79 nM | – | – | – | – | 5.1 | 400 nM | – | – | – | – | CNc1cc(Oc2c(C)cc(NC(=O)Nc3cccc(C(F)(F)F)c3)cc2Cl)ncn1 | –
31 | 400 nM | 500 nM | 16 nM | – | – | – | – | 0.16 | 2.5 nM | – | – | – | – | O=C(Nc1ccc(Oc2ncnc3[nH]ccc23)cc1)Nc1cccc(C(F)(F)F)c1 | –
1.6 | 1260 nM | 1260 nM | 800 nM | – | – | – | – | 0.4 | 320 nM | – | – | – | – | O=C(Nc1ccc(Oc2ncnc3ccccc23)cc1)Nc1cccc(C(F)(F)F)c1 | –
0.8 | 1000 nM | 2000 nM | 2500 nM | – | – | – | – | 1 | 2500 nM | – | – | – | – | CN(C)c1cc(Oc2ccc(NC(=O)Nc3cccc(C(F)(F)F)c3)cc2)ncn1 | –
10 | 800 nM | 400 nM | 40 nM | – | – | – | – | 1.3 | 50 nM | – | – | – | – | CC(C)Nc1cc(Oc2ccc(NC(=O)Nc3cccc(C(F)(F)F)c3)cc2)ncn1 | –

Continued, molecule first:

SMILES | Ratio IC50 [1] | IC50 [2] | IC50 [3] | IC50 [4] | half-life [5] | AUC/dose [6] | IC50 [7] | Papp at 2 h [8] | Ratio IC50 [9] | IC50 [10] | Ki [12] | T1/2 [13] | T1/2 [14] | Ki [15] | IC50 [11]
CC(C)(O)CNc1cc(Oc2ccc(NC(=O)Nc3cccc(C(F)(F)F)c3)cc2)ncn1 | 16 | 1600 nM | 630 nM | 40 nM | 3.7 h | 2 kg·h/L | 50 nM | 21 ×10⁻⁶ cm/s | 8 | 320 nM | – | – | – | – | –
CCS(=O)(=O)c1ccc(S(=O)(=O)NC)cc1Nc1cc(Nc2ccc(Cl)cn2)ncn1 | – | – | – | ≤ 10 nM | – | 0.56 kg·h/L | – | – | – | – | – | – | – | – | –
Nc1cc(Oc2ccc(NC(=O)Nc3cccc(C(F)(F)F)c3)cc2)ncn1 | 40 | 1600 nM | 1000 nM | 25 nM | 3.2 h | 0.4 kg·h/L | 16 nM | 24.5 ×10⁻⁶ cm/s | 0.32 | 7.9 nM | – | – | – | – | –
CCc1cc(NC(=O)Nc2cccc(C(F)(F)F)c2)cc(Cl)c1Oc1cc(NC)ncn1 | > 160 | > 2000 nM | 1600 nM | ≤ 10 nM | 3.7 h | 1.2 kg·h/L | 100 nM | 5.9 ×10⁻⁶ cm/s | > 250 | 2500 nM | – | – | – | – | –
CNS(=O)(=O)c1ccc(N(C)C)c(Nc2ncnc3[nH]ccc23)c1 | – | 6 nM | – | – | – | 0.59 kg·h/L | – | – | – | – | – | – | – | – | –
CNS(=O)(=O)c1ccc(N(C)C)c(Nc2ncnc3cc(OC)c(OC)cc23)c1 | – | 1000 nM | – | – | – | 0.18 kg·h/L | – | – | – | – | – | – | – | – | –
CNc1cc(Oc2ccc(NC(=O)Nc3cccc(C(F)(F)F)c3)cc2)ncn1 | 25 | 500 nM | 1000 nM | 40 nM | 3.2 h | 3.8 kg·h/L | 20 nM | 23 ×10⁻⁶ cm/s | 0.63 | 25 nM | – | – | – | – | –
CNc1cc(Oc2ccc(NC(=O)Nc3cccc(C)c3)cc2)ncn1 | > 20 | > 2000 nM | > 25000 nM | 1260 nM | – | – | – | – | 0.63 | 800 nM | – | – | – | – | –
CNc1cc(Oc2c(F)cc(NC(=O)Nc3cccc(C(F)(F)F)c3)cc2F)ncn1 | 25 | > 2000 nM | 500 nM | 20 nM | – | – | – | – | 2.5 | 50 nM | – | – | – | – | –
CNc1cc(Oc2ccc(NC(=O)Nc3cccc(C(F)F)c3)cc2)ncn1 | 62 | > 2000 nM | 6300 nM | 100 nM | – | – | – | – | 1.3 | 130 nM | – | – | – | – | –
CNc1nccc(Oc2ccc(NC(=O)Nc3cccc(C(F)(F)F)c3)cc2)n1 | 1 | 63 nM | 50 nM | 50 nM | – | – | – | – | 0.64 | 32 nM | – | – | – | – | –
CNc1cc(Oc2ccc(NC(=O)Nc3cccc(C(F)(F)F)c3)c3ccccc23)ncn1 | 0.2 | 100 nM | 5 nM | 25 nM | – | – | – | – | 0.5 | 13 nM | – | – | – | – | –
